Measurements from patent US9358238B2, “Method of enhancing the performance of broiler chickens” (Intervet Inc., priority 2012, dated 2016).

Assays:
Broiler chickens [1] = settings: 1 ppm for 18 days (28 to 46 days of age); cited from earlier work
Japanese quails = settings: 0, 0.2, 0.225, 0.25 mg/kg of live body weight, 21 days, birds at 26 days of age; cited from earlier work
chickens = settings: skip a day feeding; 0, 0.2, 0.25, 0.3 mg/kg of live body weight, 20 days from 25 days of age; cited from earlier work
[2] = system: broiler chickens (Cobb 500 strain); experiment: 42 day floor pen study, performance response of broiler chickens fed zilpaterol for 7 or 14 days (Example 2); format: in vivo
Source text: “Feed efficiency” refers to: feed consumed (lbs)/total live body weight (lbs). “Adjusted Feed efficiency” refers to feed consumed (lbs)/(total live body weight (lbs)+body weight (lbs) of mortalities).
“Average daily gain” refers to body weight gain (lbs)/number of days.
“Breast weight” refers to breast weight (lbs) at slaughter.
“Carcass yield” refers to carcass weight (lbs)/live body weight (lbs)×100.
“Breast yield” refers to breast weight (lbs)/live body weight (lbs)×100.
Zilpaterol hydrochloride was fed to broiler chickens in a 42 day floor pen study to evaluate the performance response of zilpaterol compared to a non-medicated control group. Six zilpaterol treatment groups consisted of three concentration levels (1, 3, and 5 ppm) and two feeding durations (7 and 14 days) and were administered in feed plus a non medicated control group. A total of 1,680 broiler chickens were allocated by sex to 56 pens with 30 birds/pen, and 4 pens/sex/group (240 birds/group). The 7 day zilpaterol treatments began at day 35 and continued to day 42 of age. The 14 day zilpaterol treatments began at day 28 and continued until day 42 of age.
Post-treatment, there were no statistically significant 2-way or 3-way interactions of sex with duration of treatment and concentration; therefore pooled results over sex are discussed. A summary of the performance response of broiler chickens fed various levels for zilpaterol (0, 1, 3, 5, ppm) and feeding durations (7, 14 days) compared to the control are shown in the following table:
A total of 1,680 broiler chickens (Cobb 500 strain) were allocated by sex to 56 pens (28 pens of males, 28 pens of females) with 30 birds per pen according to a randomized complete block design during a 42 day study. The six zilpaterol treatment groups were in a 2×3 factorial arrangement with two feeding durations of 7 or 14 days (i.e., days 35-42 or 28-42 respectively) and three zilpaterol concentration levels of 1, 3, or 5 ppm plus an un-supplemented (negative) control group. Treatment groups were randomly assigned by sex to pens within each block.

Broiler chickens [3] = experiment: Broiler chickens fed zilpaterol daily at 1 ppm from day 8 to day 56 of age (Example 1); format: in vivo, chicken
Source text: Broiler chickens were fed zilpaterol every day at 1 ppm from day 8 until day 56 of age. The observed zilpaterol performance response was relatively small. In this study, non significant performance increases in Average Daily Gain (ADG) of 1.3-2.6% and Feed Efficiency (FE) of 0.6%-1.9% were reported.

Broiler chickens [4] = settings: 0, 5 and 10 mg/kg, 3 to 6 weeks of age; cited from earlier work
[5] = 1 ppm in feed, 7 days (days 35-42)
[6] = 1 ppm in feed, 14 days (days 28-42)
[7] = 3 ppm in feed, 7 days (days 35-42)
[8] = 3 ppm in feed, 14 days (days 28-42)
[9] = 5 ppm in feed, 7 days (days 35-42)
[10] = 5 ppm in feed, 14 days (days 28-42)
[11] = 1 ppm every day, day 8 until day 56 of age, non significant

SMILES: CC(C)(C)NCC(O)c1cc(Cl)c(N)c(Cl)c1 (stereo not drawn) [Clenbuterol]
- improvement in average daily gain (ADG) above controls (Broiler chickens [1]): 3.3%
- improvement in feed efficiency (FE) above controls (Broiler chickens [1]): 3.0%

SMILES: CC(C)NC1CCn2c(=O)[nH]c3cccc(c32)C1O (stereo not drawn) [Zilpaterol, 4,5,6,7-tetrahydro-7-hydroxy-6-(isopropylamino) imidazo[4,5,1-jk]-[1]benzazepin-2(1H)-one]
- feed conversion ratio (Japanese quails): improved
- weight gain, final body weight, feed intake and carcass, thigh, breast liver and carcass weight (Japanese quails): not a significant difference
- feed efficiency (chickens): improved
- Improvement (%) of Average Daily Gain ([2]; 0 vs 1 ppm, 7 days): 5.4%
- Improvement (%) of Body Weight Day 42 ([2]; 0 vs 1 ppm, 7 days): 2.1%
- Improvement (%) of Breast Weight ([2]; 0 vs 1 ppm, 7 days): 3.8%
- Improvement (%) of Carcass Yield ([2]; 0 vs 1 ppm, 7 days): 4.0%
- Improvement (%) of Feed Efficiency (FE) ([2]; 0 vs 1 ppm, 7 days): 8.0%
- Improvement (%) of Average Daily Gain ([2]; 0 vs 1 ppm, 14 days): 3.3%
- Improvement (%) of Body Weight Day 42 ([2]; 0 vs 1 ppm, 14 days): 3.9%
- Improvement (%) of Breast Weight ([2]; 0 vs 1 ppm, 14 days): 4.2%
- Improvement (%) of Carcass Yield ([2]; 0 vs 1 ppm, 14 days): 1.8%
- Improvement (%) of Feed Efficiency (FE) ([2]; 0 vs 1 ppm, 14 days): 3.3%
- Improvement (%) of Average Daily Gain ([2]; 0 vs 3 ppm, 7 days): 18.5%
- Improvement (%) of Body Weight Day 42 ([2]; 0 vs 3 ppm, 7 days): 3.9%
- Improvement (%) of Breast Weight ([2]; 0 vs 3 ppm, 7 days): 9.1%
- Improvement (%) of Carcass Yield ([2]; 0 vs 3 ppm, 7 days): 1.7%
- Improvement (%) of Feed Efficiency (FE) ([2]; 0 vs 3 ppm, 7 days): 25.9%
- Improvement (%) of Average Daily Gain ([2]; 0 vs 3 ppm, 14 days): 9.2%
- Improvement (%) of Body Weight Day 42 ([2]; 0 vs 3 ppm, 14 days): 5.1%
- Improvement (%) of Breast Weight ([2]; 0 vs 3 ppm, 14 days): 16.1%
- Improvement (%) of Carcass Yield ([2]; 0 vs 3 ppm, 14 days): 2.9%
- Improvement (%) of Feed Efficiency (FE) ([2]; 0 vs 3 ppm, 14 days): 9.7%
- Improvement (%) of Average Daily Gain ([2]; 0 vs 5 ppm, 7 days): 23.8%
- Improvement (%) of Body Weight Day 42 ([2]; 0 vs 5 ppm, 7 days): 4.1%
- Improvement (%) of Breast Weight ([2]; 0 vs 5 ppm, 7 days): 12.6%
- Improvement (%) of Carcass Yield ([2]; 0 vs 5 ppm, 7 days): 3.9%
- Improvement (%) of Feed Efficiency (FE) ([2]; 0 vs 5 ppm, 7 days): 33.7%
- Improvement (%) of Average Daily Gain ([2]; 0 vs 5 ppm, 14 days): 13.7%
- Improvement (%) of Body Weight Day 42 ([2]; 0 vs 5 ppm, 14 days): 8.0%
- Improvement (%) of Breast Weight ([2]; 0 vs 5 ppm, 14 days): 12.6%
- Improvement (%) of Carcass Yield ([2]; 0 vs 5 ppm, 14 days): 2.8%
- Improvement (%) of Feed Efficiency (FE) ([2]; 0 vs 5 ppm, 14 days): 9.9%
- Body Weight Day 42 [2, 5]: 4.816 lb
- Breast Weight [2, 5]: 1.133 lb
- Breast Yield [2, 5]: 23.91%
- Carcass Yield [2, 5]: 81.45%
- Feed Efficiency (FE) (Feed/Gain Ratio) [2, 5]: 3.831
- Body Weight Day 42 [2, 6]: 4.898 lb
- Breast Weight [2, 6]: 1.138 lb
- Breast Yield [2, 6]: 24.27%
- Carcass Yield [2, 6]: 79.79%
- Feed Efficiency (FE) (Feed/Gain Ratio) [2, 6]: 2.632
- Body Weight Day 42 [2, 7]: 4.902 lb
- Breast Weight [2, 7]: 1.191 lb
- Breast Yield [2, 7]: 23.82%
- Carcass Yield [2, 7]: 79.71%
- Feed Efficiency (FE) (Feed/Gain Ratio) [2, 7]: 3.085
- Body Weight Day 42 [2, 8]: 4.956 lb
- Breast Weight [2, 8]: 1.268 lb
- Breast Yield [2, 8]: 25.11%
- Carcass Yield [2, 8]: 80.62%
- Feed Efficiency (FE) (Feed/Gain Ratio) [2, 8]: 2.301
- Body Weight Day 42 [2, 9]: 4.910 lb
- Breast Weight [2, 9]: 1.230 lb
- Breast Yield [2, 9]: 26.12%
- Carcass Yield [2, 9]: 81.41%
- Feed Efficiency (FE) (Feed/Gain Ratio) [2, 9]: 2.760
- Body Weight Day 42 [2, 10]: 5.093 lb
- Breast Weight [2, 10]: 1.230 lb
- Breast Yield [2, 10]: 24.20%
- Carcass Yield [2, 10]: 80.51%
- Feed Efficiency (FE) (Feed/Gain Ratio) [2, 10]: 2.295
- body weight increase versus controls ([2]; 5 ppm, 14 days (Z5-14d) versus Z0-0d, day 42): 0.38 lb
- reduction of time to reach the target market weight ([2]; 5 ppm, 14 days, 0.38 lb/0.174 lb/day): approximately 2 days
- effect on mean mortality rates compared to the control group ([2]; any level (1, 3, 5 ppm), either feeding duration (7 or 14 day)): no significant effect
- breast yield, average of the zilpaterol treatment groups ([2]; average over 1, 3, 5 ppm and 7, 14 days, control 25.46%): 24.57%
- carcass yield improvement compared to control (Broiler chickens [3]; 1 ppm daily for 7 weeks, P<0.01): 2%
- performance increase in Average Daily Gain (ADG) (Broiler chickens [3]; [11]): 1.3-2.6%
- performance increase in Feed Efficiency (FE) (Broiler chickens [3]; [11]): 0.6%-1.9

SMILES: CC(CCc1ccc(O)cc1)NCC(O)c1ccc(O)cc1 (stereo not drawn) [ractopamine]
- daily body weight gain (Broiler chickens [4]): not significantly affected
- feed conversion (Broiler chickens [4]): not significantly affected
- feed intake (Broiler chickens [4]): not significantly affected
